Several values for one entry are separate records, joined by “and”; a condition that tells them apart may be missing. Equal entries are not always repeated. Toxic doses and inconclusive results are not listed. The calls were made as follows: active = survival T/C of 150% or more; inactive = T/C below 125% in these data. Square brackets hold non-standard residues; d marks the D form. Peptide text beside a SMILES is read from it. * marks the point of attachment. Nle = CCCC[CH](N)C(=O)O; Cbz = O=C(OCc1ccccc1)*
Tested on: P388 leukemia ip, CD2F1 mice, survival T/C
Assay: NCI In Vivo Anticancer Drug Screen. Data for tumor model P388 Leukemia (intraperitoneal) in CD2F1 (CDF1) mice
Conditions: endpoint: median survival time, higher = longer survival
Outline: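 Mice carrying the transplanted tumor received test compound or vehicle. Survival was recorded in each group, and the value is the treated-group measurement divided by that of the vehicle-treated control group.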

[1] = dose: 100.0 mg/kg/injection, schedule: Q04DX002 (ip), vehicle: saline with Tween-80
[2] = dose: 50.0 mg/kg/injection, schedule: Q01DX005 (ip), vehicle: Klucel (hydroxypropylcellulose) (HPC)
[3] = dose: 100.0 mg/kg/injection, schedule: Q01DX005 (ip), vehicle: Klucel (hydroxypropylcellulose) (HPC)
[4] = dose: 200.0 mg/kg/injection, schedule: Q01DX005 (ip), vehicle: Klucel (hydroxypropylcellulose) (HPC)
[5] = dose: 50.0 mg/kg/injection, schedule: Q01DX005 (ip), vehicle: saline with Tween-80
[6] = dose: 100.0 mg/kg/injection, schedule: Q01DX005 (ip), vehicle: saline with Tween-80
[7] = dose: 200.0 mg/kg/injection, schedule: Q01DX005 (ip), vehicle: saline with Tween-80
[8] = dose: 50.0 mg/kg/injection, schedule: Q01DX009 (ip), vehicle: saline with Tween-80
[9] = dose: 100.0 mg/kg/injection, schedule: Q01DX009 (ip), vehicle: saline with Tween-80
[10] = dose: 60.0 mg/kg/injection, schedule: Q01DX005 (ip), vehicle: saline with Tween-80
[11] = dose: 120.0 mg/kg/injection, schedule: Q01DX005 (ip), vehicle: saline with Tween-80
[12] = dose: 240.0 mg/kg/injection, schedule: Q01DX005 (ip), vehicle: saline with Tween-80
[13] = dose: 50.0 mg/kg/injection, schedule: Q01DX005 (ip), vehicle: saline
[14] = dose: 25.0 mg/kg/injection, schedule: Q01DX005 (ip), vehicle: Klucel (hydroxypropylcellulose) (HPC)

Measured: T/C

COc1cc(OC)cc(C2OC(=O)c3c(OC)cc(C)cc32)c1 (configuration not stated)
inactive: [1] 93 % of control | dose: 200.0 mg/kg/injection, schedule: Q04DX002 (ip), vehicle: saline with Tween-80 88 % of control | dose: 400.0 mg/kg/injection, schedule: Q04DX002 (ip), vehicle: saline with Tween-80 90 % of control

CCOC(=O)\C(C#N)=C/C=C(C)/C(C)=C/Nc1ccc([N+](=O)[O-])cc1[N+](=O)[O-]
inactive: [2] 101 % of control | [3] 91 % of control | [4] 91 % of control

CCCCC(NC(=O)C(Cc1ccccc1)NC(=O)OCc1ccccc1)C(=O)O (stereo not drawn) (Cbz-Phe-[Nle]-OH; configuration not given here)
inactive: [5] 104 % of control | [6] 105 % of control | [7] 97 % of control

Cc1ccc(NC(=S)SCc2ccc(Cl)cc2)cc1C
inactive: dose: 50.0 mg/kg/injection, schedule: Q01DX009 (ip), vehicle: suspension in saline 101 % of control | dose: 100.0 mg/kg/injection, schedule: Q01DX009 (ip), vehicle: suspension in saline 107 % of control | dose: 200.0 mg/kg/injection, schedule: Q01DX009 (ip), vehicle: suspension in saline 97 % of control

COc1ccc2ccc(CO)cc2c1OC
inactive: dose: 25.0 mg/kg/injection, schedule: Q01DX009 (ip), vehicle: other 98 % of control | dose: 50.0 mg/kg/injection, schedule: Q01DX009 (ip), vehicle: other 92 % of control | dose: 100.0 mg/kg/injection, schedule: Q01DX009 (ip), vehicle: other 90 % of control | dose: 200.0 mg/kg/injection, schedule: Q01DX009 (ip), vehicle: other 99 % of control | dose: 400.0 mg/kg/injection, schedule: Q01DX009 (ip), vehicle: other 90 % of control

C=CCC1CCCCC1=O (configuration not stated) (tested in a mixture with another compound)
inactive: [8] 105 % of control | [9] 104 % of control | dose: 200.0 mg/kg/injection, schedule: Q01DX009 (ip), vehicle: saline with Tween-80 115 % of control

Nc1nnn(/N=C\c2ccccc2)n1
inactive: [2] 92 % of control | [3] 92 % of control

COC(=O)C1=NC(=S)N=C(C(=O)OC)C1(C)C(=O)c1ccc(Cl)cc1
inactive: [10] 95 % of control | [11] 99 % of control | [12] 94 % of control

CC(=O)Nc1scc[n+]1Cc1ccccc1
inactive: [2] 100 % of control | [3] 100 % of control | [4] 91 % of control

COc1cc(NC(C)CCCN)c2ncccc2c1Oc1ccc(Cl)cc1 (configuration not stated)
inactive: dose: 12.5 mg/kg/injection, schedule: Q01DX009 (ip), vehicle: saline with Tween-80 91 % of control | dose: 25.0 mg/kg/injection, schedule: Q01DX009 (ip), vehicle: saline with Tween-80 90 % of control | [8] 94 % of control

CS(=O)(=O)OCC(O)C(O)C(OS(C)(=O)=O)C(O)COS(C)(=O)=O (configuration not stated)
inactive: dose: 50.0 mg/kg/injection, schedule: Q04DX003 (ip), vehicle: Klucel (hydroxypropylcellulose) (HPC) 100 % of control | dose: 100.0 mg/kg/injection, schedule: Q04DX003 (ip), vehicle: Klucel (hydroxypropylcellulose) (HPC) 100 % of control

CCN(CC)CCCNC(=O)C(c1ccccc1)c1ccccc1
inactive: dose: 12.5 mg/kg/injection, schedule: Q01DX005 (ip), vehicle: saline 100 % of control | dose: 25.0 mg/kg/injection, schedule: Q01DX005 (ip), vehicle: saline 115 % of control | [13] 100 % of control and 92 % of control

CC(=O)OC1C(C)OC(OC(=O)C2CCC3C(C2)OC2(CC(OC(=O)/C=C/c4ccccc4)C(C)CO2)C32CO2)C(OC2OC(C)C(O)C(O)C2O)C1O (configuration not stated)
inactive: dose: 2.5 mg/kg/injection, schedule: Q01DX005 (ip), vehicle: saline + alcohol 96 % of control | dose: 5.0 mg/kg/injection, schedule: Q01DX005 (ip), vehicle: saline + alcohol 102 % of control and 107 % of control | dose: 10.0 mg/kg/injection, schedule: Q01DX005 (ip), vehicle: saline + alcohol 112 % of control

COc1ccc2c(c1)c(OC)c(CC(O)C(C)(C)O)c(=O)n2C (configuration not stated)
inactive: dose: 110.0 mg/kg/injection, schedule: Q01DX001 (ip), vehicle: Klucel (hydroxypropylcellulose) (HPC) 96 % of control | dose: 220.0 mg/kg/injection, schedule: Q01DX001 (ip), vehicle: Klucel (hydroxypropylcellulose) (HPC) 106 % of control | dose: 440.0 mg/kg/injection, schedule: Q01DX001 (ip), vehicle: Klucel (hydroxypropylcellulose) (HPC) 110 % of control

CN(C)CC1CCCC(CN(C)C)C1O (configuration not stated)
inactive: [13] 99 % of control | dose: 100.0 mg/kg/injection, schedule: Q01DX005 (ip), vehicle: saline 94 % of control | dose: 200.0 mg/kg/injection, schedule: Q01DX005 (ip), vehicle: saline 93 % of control

NC(=O)CC(N)CO (configuration not stated)
inactive: dose: 50.0 mg/kg/injection, schedule: Q01DX009 (ip), vehicle: saline 100 % of control | dose: 100.0 mg/kg/injection, schedule: Q01DX009 (ip), vehicle: saline 100 % of control | dose: 200.0 mg/kg/injection, schedule: Q01DX009 (ip), vehicle: saline 103 % of control | dose: 400.0 mg/kg/injection, schedule: Q01DX009 (ip), vehicle: saline 101 % of control

Cc1cc[n+](C)c(Cc2ccccc2)c1C
inactive: dose: 12.5 mg/kg/injection, schedule: Q01DX005 (ip), vehicle: Klucel (hydroxypropylcellulose) (HPC) 97 % of control | [14] 100 % of control | [2] 112 % of control

CC1(C)C(C(=O)/C=C2\Nc3ccccc3C2(C)C)=Nc2ccccc21
inactive: dose: 60.0 mg/kg/injection, schedule: Q01DX005 (ip), vehicle: Klucel (hydroxypropylcellulose) (HPC) 102 % of control | dose: 120.0 mg/kg/injection, schedule: Q01DX005 (ip), vehicle: Klucel (hydroxypropylcellulose) (HPC) 91 % of control | dose: 240.0 mg/kg/injection, schedule: Q01DX005 (ip), vehicle: Klucel (hydroxypropylcellulose) (HPC) 98 % of control

O=C1CCCC2=C1c1cc3c(cc1CCN2)OCO3
inactive: dose: 25.0 mg/kg/injection, schedule: Q04DX002 (ip), vehicle: saline with Tween-80 101 % of control | dose: 50.0 mg/kg/injection, schedule: Q04DX002 (ip), vehicle: saline with Tween-80 96 % of control | [1] 94 % of control and 97 % of control

COc1ccc(CCNC(=O)C2CC3CCCCN3C2C)cc1OC (configuration not stated)
inactive: [10] 99 % of control | [11] 95 % of control | [12] 94 % of control

C/C(=N\O)C1(O)CCCCC1
inactive: dose: 50.0 mg/kg/injection, schedule: Q01DX009 (ip), vehicle: Klucel (hydroxypropylcellulose) (HPC) 108 % of control | dose: 100.0 mg/kg/injection, schedule: Q01DX009 (ip), vehicle: Klucel (hydroxypropylcellulose) (HPC) 108 % of control | dose: 200.0 mg/kg/injection, schedule: Q01DX009 (ip), vehicle: Klucel (hydroxypropylcellulose) (HPC) 105 % of control | dose: 400.0 mg/kg/injection, schedule: Q01DX009 (ip), vehicle: Klucel (hydroxypropylcellulose) (HPC) 113 % of control

C[C@@H]1C(=O)C[C@H]2C(C)(C)CCC[C@]2(C)[C@@]1(O)CCc1ccoc1
inactive: [14] 100 % of control | [2] 100 % of control | [3] 100 % of control | [4] 96 % of control

O=c1cc2n(c(=O)n1Cc1ccccc1)CCC2
inactive: dose: 12.5 mg/kg/injection, schedule: Q01DX005 (ip), vehicle: saline with Tween-80 97 % of control | dose: 25.0 mg/kg/injection, schedule: Q01DX005 (ip), vehicle: saline with Tween-80 99 % of control | [5] 101 % of control

C(=C/c1nc2ccccc2nc1CCN1CCCCC1)/c1ccc2c(c1)OCO2
inactive: [5] 100 % of control | [6] 102 % of control | [7] 102 % of control

Cc1cnc(C)c2ccccc12
inactive: [8] 109 % of control | [9] 117 % of control

— PubChem BioAssay AID330 (DTP/NCI, 2004)
